Test results as given in a compilation of properties of binary mixtures (doi:10.1016/j.molliq.2018.02.064).

Test: xn = mol fraction of the nth substance listed
Conditions: 100 kPa

CCCC[n+]1ccn(C)c1.O=S(=O)([N-]S(=O)(=O)C(F)(F)F)C(F)(F)F + CCO
viscosity [mPa·s]
Conditions | x1 = 0.2129 | x1 = 0.2688 | x1 = 0.4215 | x1 = 0.4606 | x1 = 0.5784 | x1 = 0.6609 | x1 = 0.747 | x1 = 0.8264 | x1 = 1
293 K | 5.22 | 6.47 | 12.72 | 13.9 | – | 24.9 | 32.4 | 40.9 | 63.5
293.3 K | 5.19 | 6.42 | 12.59 | – | 20.5 | 24.6 | – | 40.4 | 62.7
293.61 K | 5.15 | – | 12.47 | 13.7 | 20.4 | 24.4 | 31.8 | 39.9 | –
293.91 K | – | 6.33 | 12.34 | – | 20.2 | – | 31.4 | 39.4 | 61
294.21 K | 5.08 | 6.28 | – | 13.42 | 20 | – | 31.1 | 38.9 | –
294.52 K | 5.05 | 6.24 | 12.1 | 13.3 | 19.8 | 23.7 | – | – | –
294.82 K | 5.01 | 6.19 | – | 13.18 | 19.6 | 23.5 | 30.5 | 38 | –
295.12 K | 4.98 | 6.15 | – | 13.06 | 19.4 | 23.3 | – | 37.6 | 57.8
295.42 K | – | – | 11.75 | – | 19.2 | 23.1 | 29.9 | 37.1 | 57
295.73 K | 4.91 | 6.06 | 11.64 | 12.82 | 19 | 22.8 | 29.5 | – | 56.3
296.03 K | 4.87 | 6.02 | 11.52 | 12.7 | 18.9 | 22.6 | 29.2 | 36.2 | 55.6
296.33 K | 4.84 | 5.98 | 11.41 | 12.59 | 18.7 | 22.4 | 28.9 | 35.8 | 54.8
296.64 K | 4.81 | – | 11.31 | – | 18.5 | 22.2 | 28.6 | 35.4 | –
296.94 K | 4.77 | 5.89 | 11.2 | – | 18.34 | 22 | – | 35 | 53.4
297.24 K | 4.74 | – | – | 12.25 | – | 21.8 | – | 34.5 | 52.7
297.55 K | 4.71 | 5.81 | 10.99 | 12.14 | 18 | 21.6 | 27.8 | – | 52.1
297.85 K | 4.68 | 5.77 | 10.88 | 12.04 | 17.83 | 21.4 | 27.5 | 33.7 | –
298.15 K | – | – | 10.78 | 11.93 | 17.67 | 21.2 | 27.2 | 33.3 | 50.8
298.45 K | 4.61 | 5.69 | 10.68 | 11.82 | 17.5 | – | – | 33 | 50.1
298.76 K | 4.58 | 5.65 | – | 11.72 | 17.34 | 20.8 | 26.7 | – | 49.5
299.06 K | – | 5.61 | 10.49 | 11.62 | – | – | 26.4 | 32.2 | 48.9
299.36 K | 4.52 | 5.57 | 10.39 | 11.52 | 17.03 | 20.4 | 26.2 | 31.8 | 48.3
299.67 K | 4.48 | 5.53 | 10.29 | – | 16.87 | 20.2 | 25.9 | 31.5 | 47.7
299.97 K | – | 5.49 | 10.2 | 11.31 | – | 20 | 25.6 | 31.1 | 47.1
300.27 K | – | 5.45 | – | 11.22 | 16.56 | 19.9 | – | – | 46.5
300.58 K | 4.39 | 5.41 | – | 11.12 | 16.41 | 19.7 | 25.1 | 30.4 | 45.9
300.88 K | 4.36 | – | – | 11.02 | 16.26 | 19.5 | 24.9 | 30.1 | 45.4
301.18 K | 4.33 | – | 9.84 | 10.93 | 16.11 | 19.3 | 24.6 | 29.7 | 44.8
301.48 K | – | 5.3 | 9.75 | 10.83 | 15.97 | 19.1 | 24.4 | 29.4 | 44.3
301.79 K | 4.27 | 5.26 | 9.66 | 10.74 | 15.82 | 19 | 24.2 | 29 | 43.7
302.09 K | 4.24 | 5.22 | 9.57 | 10.65 | 15.68 | 18.8 | 23.9 | 28.7 | 43.2
302.39 K | 4.21 | 5.19 | 9.49 | – | 15.54 | 18.6 | 23.7 | 28.4 | 42.7
302.7 K | – | – | 9.41 | 10.47 | 15.4 | 18.5 | – | – | 42.2
303 K | 4.15 | 5.11 | 9.32 | – | 15.26 | 18.3 | – | 27.8 | 41.7
303.3 K | 4.13 | – | 9.24 | 10.29 | 15.12 | 18.1 | 23 | 27.4 | 41.2
303.61 K | 4.1 | 5.04 | 9.16 | 10.2 | 14.99 | 18 | 22.8 | 27.1 | 40.7
303.91 K | 4.07 | 5 | 9.08 | 10.12 | 14.85 | 17.8 | 22.6 | – | 40.2
304.21 K | 4.04 | 4.97 | 9 | 10.03 | 14.72 | 17.6 | 22.3 | 26.5 | 39.8
304.52 K | 4.01 | 4.93 | 8.92 | – | – | 17.5 | 22.1 | 26.2 | –
304.82 K | 3.98 | – | – | 9.87 | 14.46 | 17.3 | – | 26 | 38.9
305.12 K | 3.96 | 4.86 | 8.77 | 9.78 | 14.33 | 17.1 | 21.7 | 25.7 | –
305.42 K | 3.93 | 4.83 | 8.7 | 9.7 | 14.2 | 16.99 | 21.5 | 25.4 | 38
305.73 K | 3.9 | 4.8 | 8.62 | 9.62 | 14.07 | 16.84 | 21.3 | 25.1 | 37.5
306.03 K | 3.88 | – | 8.55 | 9.54 | 13.95 | 16.69 | 21.1 | 24.8 | 37.1
306.33 K | 3.85 | 4.73 | 8.48 | 9.46 | – | 16.54 | 20.9 | – | 36.7
306.64 K | 3.82 | – | 8.41 | 9.39 | 13.7 | – | 20.7 | 24.3 | 36.2
306.94 K | – | 4.66 | 8.34 | 9.31 | 13.58 | 16.24 | 20.5 | 24 | 35.8
307.24 K | 3.77 | 4.63 | – | – | 13.46 | 16.09 | 20.3 | 23.8 | 35.4
307.55 K | 3.74 | 4.6 | 8.2 | 9.16 | 13.34 | 15.95 | 20.1 | 23.5 | 35
307.85 K | 3.72 | 4.56 | 8.13 | 9.08 | 13.23 | – | – | – | –
